Source: ChEMBL document CHEMBL1201862, “PubChem BioAssay data set” (2004)
“And” between values parts separate entries of the source, which are not always exact repeats. Equal values may be shown once. The source made the active and inactive calls.

How the values were obtained:
[1] = tested on: INS1; experiment: beta cell apoptosis inhibitors, cytokine rescue, dose response, luminescence, retest (AID 449756); assay type: functional, cell-based; conditions: Rattus norvegicus;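 also: cell death triggered by IL-1 beta plus TNF-alpha plus IFN-gamma mixture; protective hits raise ATP signal compared with cytokine alone wells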
[2] = C. albicans growth with fluconazole, confirmation, fluorescence, retest (AID 2467); assay type: functional, cell-based
[3] = NIH-3T3 fibroblast cytotoxicity, dose response, cytotoxicity control, cell-based, fluorescence, Alamar Blue, secondary assay (AID 2327); assay type: functional;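 also: NIH-3T3 mouse fibroblasts cultured with fluconazole at 8 µg/mL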
[4] = biological target: Cytochrome P450 3A4 (Homo sapiens, UniProt P08684);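 also: CYP3A4 tested as one member of a cytochrome P450 panel screen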
[5] = biological target: Cytochrome P450 2C9 (Homo sapiens, UniProt P11712)
[6] = tested on: Streptococcus; experiment: Group A Streptococcus viability loss, dose response, counter-screen for streptokinase expression inhibitor project, luminescence, BacTiterGlo (AID 1915); assay type: functional, organism-based;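 also: potency for reduction of bacterial viability or growth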
[7] = tested on: Streptococcus sp. 'group A'; experiment: growth inhibition of control SK(-) GAS strain, dose response, counter-screen for streptokinase expression inhibitor project, luminescence, kanamycin, BacTiterGlo, confirmation (AID 1900); assay type: functional, organism-based
[8] = biological target: T1, Ubiquitin-conjugating enzyme E2 N (Homo sapiens, UniProt P61088); assay type: functional;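 also: Dose-response confirmation in a TR-FRET assay detecting UBC13-driven polyubiquitin chain formation, inhibition measured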
T1 sequence (P61088 whole entry): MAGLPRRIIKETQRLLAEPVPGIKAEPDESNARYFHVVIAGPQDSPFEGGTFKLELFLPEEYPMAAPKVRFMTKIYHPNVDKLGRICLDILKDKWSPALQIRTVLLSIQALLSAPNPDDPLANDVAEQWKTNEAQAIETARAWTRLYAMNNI

[9] = cytotoxicity toward NIH3T3 fibroblasts, dose response, counter-screen, cell-based, ATP luminescence, mouse fibroblasts (AID 2010); assay type: functional;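 also: cells exposed to compound for about 90 hours before reading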
[10] = inhibitors of intracellular T. cruzi replication, confirmation, NIH3T3 host cells, beta-gal luminescence (AID 2044); assay type: functional, cell-based;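 also: intracellular parasites grown in NIH/3T3 mouse fibroblasts as host cells; luminescent beta-galactosidase reporter signal from transgenic T. cruzi replicating inside host cells; inhibitors lower the luminescence signal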
[11] = biological target: Cytochrome P450 2C19 (Homo sapiens, UniProt P33261); experiment: Cytochrome panel assay with activity outcomes. Panel member name: p450-cyp2c19 Compounds with AC50 equal or less than 10 uM are considered active; assay type: functional; conditions: read-out: AC50
[12] = tested on: H4; experiment: Luminescence Cell-Based Dose Response HTS to Identify Activators of 5'UTR Stem-Loop Driven Prion Protein mRNA Translation in H4 Neuroglioblastoma Cells. [Related pubchem assays: 1829 (Project Summary), 1814 (Primary HTS)]; assay type: functional; conditions: Homo sapiens
[13] = biological target: T2, Heat shock factor protein 1 (Mus musculus, UniProt P38532); experiment: HSF1 potentiators in luciferase reporter cells, confirmation, cell-based, NIH3T3, luminescence, dose retest (AID 435004); assay type: functional;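 also: stress induced by proteasome inhibitor MG132 added 30 min after compound; luciferase reporter driven by HSF1 response element in NIH3T3 cells; actives raise luminescence as potentiators of the MG132 stress response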
T2 sequence (P38532 whole entry): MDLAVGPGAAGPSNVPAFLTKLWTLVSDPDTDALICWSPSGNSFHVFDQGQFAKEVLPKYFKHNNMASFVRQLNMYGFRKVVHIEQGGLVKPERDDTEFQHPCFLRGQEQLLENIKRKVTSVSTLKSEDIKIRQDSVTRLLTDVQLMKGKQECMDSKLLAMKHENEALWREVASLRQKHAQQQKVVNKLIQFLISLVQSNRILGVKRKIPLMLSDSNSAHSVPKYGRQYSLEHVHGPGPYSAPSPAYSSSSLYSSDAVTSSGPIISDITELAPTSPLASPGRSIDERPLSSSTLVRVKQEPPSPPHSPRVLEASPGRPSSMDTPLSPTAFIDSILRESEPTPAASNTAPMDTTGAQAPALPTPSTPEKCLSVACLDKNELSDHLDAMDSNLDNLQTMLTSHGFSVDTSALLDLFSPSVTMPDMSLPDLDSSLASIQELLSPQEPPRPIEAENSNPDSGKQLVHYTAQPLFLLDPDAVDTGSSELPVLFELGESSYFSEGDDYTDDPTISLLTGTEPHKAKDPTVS

[14] = biological target: T3, Cytochrome P450 1A2 (Homo sapiens, UniProt P05177);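 also: PubChem cytochrome P450 panel assay, CYP1A2 panel member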
T3 sequence (P05177 whole entry): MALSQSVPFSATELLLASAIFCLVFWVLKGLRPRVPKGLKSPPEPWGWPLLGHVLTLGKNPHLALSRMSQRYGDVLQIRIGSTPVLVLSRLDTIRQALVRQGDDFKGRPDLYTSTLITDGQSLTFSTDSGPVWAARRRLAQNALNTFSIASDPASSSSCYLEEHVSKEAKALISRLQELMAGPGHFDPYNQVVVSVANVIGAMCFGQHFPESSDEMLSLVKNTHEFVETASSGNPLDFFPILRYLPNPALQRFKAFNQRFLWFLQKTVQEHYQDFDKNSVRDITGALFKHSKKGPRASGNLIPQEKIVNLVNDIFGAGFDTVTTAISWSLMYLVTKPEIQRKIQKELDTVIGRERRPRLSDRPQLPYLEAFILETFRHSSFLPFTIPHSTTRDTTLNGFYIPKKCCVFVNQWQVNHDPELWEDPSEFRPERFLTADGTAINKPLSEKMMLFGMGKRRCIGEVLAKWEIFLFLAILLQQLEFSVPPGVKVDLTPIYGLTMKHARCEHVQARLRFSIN

[15] = Luminescence Cell-Based Dose Response HTS to Identify Activators of Luciferase Translation or Activity in H4 […] Cells. [Related pubchem assays: 1829 (Project Summary), 1814 (Primary HTS)]; assay type: functional
[16] = Shn3 3'UTR reporter inhibitors, dose response, cell-based, Clone20 osteoblasts, firefly luciferase, cherry-picked (AID 624132); assay type: functional;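 also: firefly luciferase luminescence from reporter carrying the Shn3 3'UTR in osteoblasts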
[17] = biological target: Paired box protein Pax-8 (Homo sapiens, UniProt Q06710); experiment: inhibitors of PAX8-driven TPO luciferase reporter, dose response, RMG-I cells, cherry-pick (AID 687027); assay type: functional, cell-based;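 also: luciferase reporter driven by Pax8 target thyroperoxidase promoter measured by SteadyGlo luminescence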
Sequence of Paired box protein Pax-8 (Q06710 whole entry): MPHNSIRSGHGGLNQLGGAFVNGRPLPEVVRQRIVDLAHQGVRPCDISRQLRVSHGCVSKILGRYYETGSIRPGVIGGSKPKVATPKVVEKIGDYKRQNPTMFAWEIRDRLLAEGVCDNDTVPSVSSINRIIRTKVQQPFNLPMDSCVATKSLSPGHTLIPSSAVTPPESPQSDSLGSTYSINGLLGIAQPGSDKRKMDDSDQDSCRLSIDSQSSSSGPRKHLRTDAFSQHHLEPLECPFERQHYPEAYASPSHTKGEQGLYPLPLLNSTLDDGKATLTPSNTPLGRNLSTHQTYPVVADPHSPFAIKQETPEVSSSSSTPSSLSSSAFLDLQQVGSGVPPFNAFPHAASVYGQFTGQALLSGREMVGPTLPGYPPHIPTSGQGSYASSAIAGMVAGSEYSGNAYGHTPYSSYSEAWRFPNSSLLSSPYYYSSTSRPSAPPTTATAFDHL

Sequence of Cytochrome P450 2C9 (P11712 whole entry): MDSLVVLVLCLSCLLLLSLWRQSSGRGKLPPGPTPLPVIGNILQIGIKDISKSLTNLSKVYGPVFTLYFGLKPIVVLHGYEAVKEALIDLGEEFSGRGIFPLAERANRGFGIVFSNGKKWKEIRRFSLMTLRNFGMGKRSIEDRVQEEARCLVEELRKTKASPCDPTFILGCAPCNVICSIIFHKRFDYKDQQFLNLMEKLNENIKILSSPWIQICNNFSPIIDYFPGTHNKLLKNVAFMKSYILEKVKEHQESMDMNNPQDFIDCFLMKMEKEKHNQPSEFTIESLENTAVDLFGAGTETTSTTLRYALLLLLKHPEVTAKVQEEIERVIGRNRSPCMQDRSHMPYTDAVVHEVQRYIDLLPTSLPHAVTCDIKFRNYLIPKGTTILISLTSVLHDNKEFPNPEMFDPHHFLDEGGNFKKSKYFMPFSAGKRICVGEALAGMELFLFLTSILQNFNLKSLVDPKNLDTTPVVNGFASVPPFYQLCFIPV
Sequence of Cytochrome P450 2C19 (P33261 whole entry): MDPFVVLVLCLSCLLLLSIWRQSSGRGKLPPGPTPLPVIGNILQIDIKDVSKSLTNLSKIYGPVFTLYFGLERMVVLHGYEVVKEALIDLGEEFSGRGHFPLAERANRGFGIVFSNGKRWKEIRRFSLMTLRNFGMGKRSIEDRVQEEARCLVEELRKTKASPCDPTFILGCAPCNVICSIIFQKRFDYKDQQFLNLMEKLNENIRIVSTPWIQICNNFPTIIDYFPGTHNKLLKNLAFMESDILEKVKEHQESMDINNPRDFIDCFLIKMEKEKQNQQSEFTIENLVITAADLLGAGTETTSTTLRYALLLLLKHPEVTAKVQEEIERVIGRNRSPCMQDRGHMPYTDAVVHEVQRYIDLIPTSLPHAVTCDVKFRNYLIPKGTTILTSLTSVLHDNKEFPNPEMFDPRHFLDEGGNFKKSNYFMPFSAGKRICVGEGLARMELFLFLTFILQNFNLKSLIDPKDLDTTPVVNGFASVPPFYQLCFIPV
Sequence of Cytochrome P450 3A4 (P08684 whole entry): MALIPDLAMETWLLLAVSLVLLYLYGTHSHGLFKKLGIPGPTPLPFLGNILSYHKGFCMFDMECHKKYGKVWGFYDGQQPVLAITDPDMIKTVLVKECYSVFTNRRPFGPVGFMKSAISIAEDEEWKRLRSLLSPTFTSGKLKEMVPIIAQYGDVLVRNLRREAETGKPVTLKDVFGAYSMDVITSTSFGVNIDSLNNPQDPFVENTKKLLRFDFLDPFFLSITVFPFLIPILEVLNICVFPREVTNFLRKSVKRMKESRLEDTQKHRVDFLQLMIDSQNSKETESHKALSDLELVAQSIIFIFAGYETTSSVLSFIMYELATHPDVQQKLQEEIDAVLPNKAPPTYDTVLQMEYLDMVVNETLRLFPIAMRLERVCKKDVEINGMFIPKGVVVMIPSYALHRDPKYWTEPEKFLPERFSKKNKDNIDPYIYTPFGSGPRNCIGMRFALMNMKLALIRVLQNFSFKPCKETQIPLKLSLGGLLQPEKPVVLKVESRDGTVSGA

Cc1ccc(N2C(=O)CSC2c2cccnc2)c(Cl)c1 (stereo unspecified)
AC50 [1]: > 260 µM (inactive)

CCc1ccc(C(=O)NNc2ccc(F)cc2F)cc1
EC50 [2]: > 38 µM (not active)
EC50 [3]: > 150 µM (inactive)

COC(=O)c1cc(OC)c(OC)cc1NC(=O)CSc1ccccc1
AC50 [4]: 15.8 µM (inconclusive)
AC50 [5]: 20 µM (inconclusive)

Cc1nnc(SCC2=C(C(=O)O)N3C(=O)C(NC(=O)Cn4ncc(Cl)c4C)C3SC2)s1 (stereo unspecified)
EC50 [6]: 0.117 µM (active)
EC50 [7]: < 0.06 µM (active)

C[C@@]1(C(NC(=O)Cc2ccccc2)c2ccc(-c3ccccc3)cc2)C[C@H]1C1CCCCC1 (stereo partly specified)
AC50 [4]: 15.8 µM (inconclusive)

N#C/C(=C\NC(=S)c1ccncc1)c1nc2ccccc2s1
AC50 [4]: 2.51 µM (inconclusive)
AC50 [5]: 6.31 µM (inconclusive)

O=C(COC(=O)Cn1cnc2ccccc2c1=O)NCc1ccccc1Cl
IC50 [8]: > 20 µM (inactive)

Cc1ccccc1OCC(O)CN1CCN(CCN2C(=O)c3cccc4cccc(c34)C2=O)CC1 (stereo unspecified)
EC50 [9]: > 60 µM (inconclusive)
IC50 [8]: > 20 µM (inactive)
EC50 [10]: 851 nM (active)

O=C(Nc1nnc(C2CC2)s1)c1ccc(S(=O)(=O)c2ccccc2)cc1
AC50 [11]: 7.08 µM (inconclusive)
AC50 [5]: 0.794 µM (inconclusive)

COCCNc1ccnc(-c2c(C)noc2C)n1
AC50 [4]: 31.6 µM (inconclusive)

COCCn1c(=O)c(-c2ccc(F)cc2)nc2cnc(OCc3ccccc3)nc21
AC50 [11]: 10 µM (inconclusive)
AC50 [4]: 12.6 µM (inconclusive)
AC50 [5]: 20 µM (inconclusive)

COc1cc(-c2nnc(NC(=O)c3ccc(S(=O)(=O)N4CCOCC4)cc3)o2)cc(OC)c1OC
EC50 [2]: 5.71 µM (active)
EC50 [3]: > 160 µM (inactive)

CCN1CCN(c2cc(C)c3cc(NC(=S)N4CCN(c5ccc(F)cc5)CC4)ccc3n2)CC1
IC50 [8]: > 20 µM (inactive)

C=CCN1CC[C@@]23c4c5ccc(O)c4O[C@H]2/C(=N\N=C2/CC[C@@]4(O)[C@H]6Cc7ccc(O)c8c7[C@@]4(CCN6CC=C)[C@@H]2O8)CC[C@]3(O)[C@@H]1C5
AC50 [4]: 31.6 µM (inconclusive) and 25.1 µM (inconclusive)

CCC/C=C(\CCC)C(NS(=O)(=O)c1ccc(C(F)(F)F)cc1)c1ccc(-c2ccccc2)cc1 (stereo unspecified)
AC50 [4]: 3.98 µM (inconclusive)

CCN(CC)c1ccc(/C=C/C(=O)c2cccnc2)cc1
EC50 [2]: 0.065 µM (active)
EC50 [3]: > 150 µM (inactive)

Oc1ccc(Cl)cc1C1=NNC(c2ccc(Cl)cc2)C1 (stereo unspecified)
EC50 [6]: 5.5 µM (active)
EC50 [7]: 2.78 µM (active)

COc1ccc(Cc2nn3c(O)cc(C(C)C)nc3c2-c2ccccc2)cc1
EC50 [6]: 4.68 µM (active)
EC50 [7]: 1.78 µM (active)

CS(=O)(=O)N1CCC2(CCCN(C(=O)Nc3cccc(C#N)c3)C2)CC1
AC50 [4]: 25.1 µM (inconclusive)

O=C(Nc1nccs1)c1cc2c(s1)-c1ccccc1OC2
EC50 [12]: > 120 µM (not active)

COc1ccc(NC(=O)COc2ccccc2Cc2ccccc2)cc1S(N)(=O)=O
EC50 [13]: > 260 µM (inactive)

COc1ccc(CN2CN=C(Nc3nc4ccccc4s3)NC2)cc1
AC50 [4]: 10 µM (inconclusive)
AC50 [5]: 20 µM (inconclusive)

Cc1ccc(-c2nnc(N(C)C(=O)c3cccnc3)s2)cc1
AC50 [14]: 10 µM (inconclusive)
AC50 [11]: 3.16 µM (inconclusive)
AC50 [4]: 17.8 µM (inconclusive)

COC(=O)[C@@H]1[C@@H](O)[C@@]2(O)c3c(OC)cc(OC)cc3O[C@@]2(c2ccc(OC)cc2)[C@H]1c1ccccc1
AC50 [4]: 10 µM (inconclusive)

CCOC(=O)CSc1cc(-c2ccccc2)nc2ncnn12
EC50 [13]: 22.8 µM (active)

CCCn1c(=N)n(CC(=O)c2ccc([N+](=O)[O-])cc2)c2ccccc21
EC50 [2]: > 38 µM (not active)
EC50 [3]: 10.5 µM (active)

Cc1ccc(S(=O)(=O)c2c(N)n(-c3ccccc3)c3nc4ccccc4nc23)cc1
EC50 [13]: 28.6 µM (active)

O=C(CC12CCC(CC1)C2)NCc1ccc2c(c1)OCO2
EC50 [13]: > 260 µM (inactive)

COC(=O)C1=C(C)N(Cc2ccccc2)C(NCCc2ccccn2)=N[C@H]1c1cccc(C(F)(F)F)c1
IC50 [8]: > 20 µM (inactive)

CCCCn1c(SC(C)C(N)=O)nc2cc(C(=O)OC)ccc2c1=O (stereo unspecified)
AC50 [11]: 3.55 µM (inconclusive)
AC50 [5]: 8.91 µM (inconclusive)

COc1ccc(/C=C2\OC(=O)c3c(OC)cccc32)cc1OC
EC50 [12]: 22.4 µM (active)
EC50 [15]: 7.38 µM (active)
AC50 [4]: 10 µM (inconclusive)

CN(C)CC(O)COc1cc2ccccc2cc1C(=O)N1CCCCC1 (stereo unspecified)
EC50 [3]: > 150 µM (inactive)

Cc1ccc2c(c1)c(C)c(C)n2CC(O)Cn1nc(C)c(Br)c1C (stereo unspecified)
EC50 [13]: > 260 µM (inactive)

COc1ccc(NC(=O)CSc2nc(O)cc(=O)n2-c2ccc(OC)cc2)cc1
EC50 [6]: 26 µM (inconclusive)
EC50 [7]: 13.9 µM (active)

Cc1cccc(N(C(=O)c2snc(C(N)=O)c2N)C(C(=O)NCC2CCCO2)c2c[nH]c3ccccc23)c1 (stereo unspecified)
IC50 [8]: > 20 µM (inactive)

C#CCOCCOCCOCCNc1nc(N2CCN(C(=O)C([C@@H](C)O)n3cc([C@@H](N)CCCCN)nn3)CC2)nc(N2CCN(C(=O)C([C@@H](C)O)n3cc([C@@H](N)CCCCN)nn3)CC2)n1 (stereo partly specified)
IC50 [8]: > 20 µM (inactive)

Cc1ccc(NC(=O)c2sc(N)nc2-c2ccc([N+](=O)[O-])cc2)c(C)c1
EC50 [13]: > 260 µM (inactive)

Oc1ccc(Cl)cc1Nc1nc(NCC2CCCO2)c2ccccc2n1 (stereo unspecified)
IC50 [8]: > 20 µM (inactive)

COc1ccc(NC(=O)CCOc2cc(C)ccc2C)cc1S(=O)(=O)N1CCCCC1
AC50 [16]: 10.4 µM (active)

Cc1cc(C)cc(-n2nnnc2-c2cn(C)nc2C(F)(F)F)c1
AC50 [4]: 15.8 µM (inconclusive)

CC(C)NC(=Nc1ccc(Cl)cc1)c1cccnc1
AC50 [11]: 6.31 µM (inconclusive)
AC50 [4]: 22.4 µM (inconclusive)

Cc1cc(C(=O)c2ccc3ccccc3c2)c(C)o1
AC50 [1]: > 260 µM (inactive)

O=C(N/N=C/c1ccc[nH]1)c1cc2ccccc2cc1O
EC50 [2]: > 38 µM (not active)
EC50 [3]: > 160 µM (inactive)

CN1c2ccc(C#Cc3cccnc3)cc2[C@@H]2[C@@H](CCN2C(=O)Cc2cccnc2)[C@@H]1CO
AC50 [17]: 57.2 µM (active)

O=C(Nc1ccc(Cl)c(Cl)c1)N[C@@H]1CC[C@H](CCn2cc(C3CCCCC3)nn2)O[C@H]1CO
AC50 [17]: 19.7 µM (active)

C/C(CC(=O)NCc1ccco1)=N\NC(=O)Cc1ccc(Cl)cc1
AC50 [14]: 20 µM (inconclusive)
AC50 [11]: 22.4 µM (inconclusive)
AC50 [4]: 15.8 µM (inconclusive)
AC50 [5]: 25.1 µM (inconclusive)

COc1ccc(/C=N/NC(=O)c2ccc(-c3ccccc3)cc2)cc1O
EC50 [2]: 0.036 µM (active)
EC50 [3]: > 150 µM (inactive)

CC(=O)O[C@H]1CC[C@H]2[C@@H]3CC[C@H]4[C@@H](O)[C@H](O)CC[C@]4(C)[C@H]3CC[C@]12C
AC50 [16]: > 70 µM (inactive)

CN(C)c1nc(N)c(C(=O)NC(=N)N)nc1Cl
AC50 [4]: 10 µM (inconclusive)
